Columns and labels:
Type in all cases: toxicity, cell-based
[1] = tested on: HEK-293T; assay: Incucyte cell viability with HEK293T; conditions: human, 10 µM, compound concentration 10 uM
[2] = tested on: Fibroblast; assay: Incucyte cell viability with human fibroblast; conditions: 10 µM, compound concentration 10 uM
[3] = tested on: U2OS; assay: Incucyte cell viability with U2OS; conditions: human, 10 µM, compound concentration 10 uM
Further: unitless GR value; below 1 slowed growth and below 0 cell loss.

Row | SMILES | Growth Rate ([1]; 6 h, replicate number 1) | Growth Rate ([1]; 6 h, replicate number 2) | Growth Rate ([1]; 18 h, replicate number 1) | Growth Rate ([1]; 18 h, replicate number 2) | Growth Rate ([1]; 24 h, replicate number 1) | Growth Rate ([1]; 24 h, replicate number 2) | Growth Rate ([2]; 6 h, replicate number 1) | Growth Rate ([2]; 6 h, replicate number 2) | Growth Rate ([2]; 12 h, replicate number 1) | Growth Rate ([2]; 12 h, replicate number 2) | Growth Rate ([2]; 18 h, replicate number 2) | Growth Rate ([2]; 24 h, replicate number 2) | Growth Rate ([3]; 6 h, replicate number 2) | Growth Rate ([3]; 12 h, replicate number 1) | Growth Rate ([3]; 12 h, replicate number 2) | Growth Rate ([3]; 18 h, replicate number 2) | Growth Rate ([3]; 24 h, replicate number 1) | Growth Rate ([3]; 24 h, replicate number 2) | Growth Rate ([3]; 0 h, replicate number 2) | Growth Rate ([3]; 6 h, replicate number 1) | also measured
1 | COc1ccc(Cl)cc1[C@]1(F)C(=O)Nc2cc(C(F)(F)F)ccc21 [FLINDOKALNER] | 0.73 | 0.03 | 0.42 | 0.4 | 0.44 | 0.47 | -0.6 | -1 | -1 | 0.2 | 0.41 | 0.58 | 0.48 | 0.57 | 0.76 | 0.88 | 0.83 | 0.95 |  |  | Growth Rate ([1]; 0 h, replicate number 1): 0.73; Growth Rate ([1]; 12 h, replicate number 1): 0.58; Growth Rate ([1]; 12 h, replicate number 2): 0.38; Growth Rate ([3]; 18 h, replicate number 1): 0.79
2 | CN(C1CCc2c(c3ccccc3n2CC(=O)O)C1)S(=O)(=O)c1ccc(F)cc1 (stereo not given) |  |  |  |  |  |  | 0.47 | 0.23 |  |  | 0.96 |  |  |  | 0.9 | 0.93 | 0.87 | 0.92 | 0.7 | 0.61 | Growth Rate ([1]; 0 h, replicate number 1): 0.38; Growth Rate ([2]; 0 h, replicate number 1): -0.98; Growth Rate ([2]; 0 h, replicate number 2): 0.14; Growth Rate ([2]; 18 h, replicate number 1): 0.85; Growth Rate ([2]; 24 h, replicate number 1): 0.96; Growth Rate ([3]; 0 h, replicate number 1): 0.71
3 | CC(C)(C#Cc1ccc(NC(=O)COc2ccccc2C(=O)c2ccccc2)c(Cl)c1)C(=O)O [BI 2439] | 0.72 | 0.41 | 0.78 | 0.62 | 0.79 | 0.69 | 0.59 |  |  | 0.66 |  |  | 0.76 |  | 0.68 | 0.81 |  | 0.76 | -0.27 | 1 | Growth Rate ([1]; 12 h, replicate number 1): 0.81; Growth Rate ([1]; 12 h, replicate number 2): 0.42; Growth Rate ([2]; 0 h, replicate number 2): -0.64; Growth Rate ([2]; 18 h, replicate number 1): 0.92; Growth Rate ([2]; 24 h, replicate number 1): 0.89
4 | O=C(CCSCc1ccco1)NNC(=O)N1Cc2ccccc2Oc2ccc(Cl)cc21 |  |  | 0.93 |  | 0.96 |  | 0.64 | -0.43 | 0.82 | 0.45 | 0.53 | 0.72 |  |  | 0.92 |  |  | 0.92 |  | 0.95 | Growth Rate ([2]; 0 h, replicate number 1): -1; Growth Rate ([2]; 18 h, replicate number 1): 0.92; Growth Rate ([2]; 24 h, replicate number 1): 0.8
5 | O=c1[nH]c(CS[C@H]2CC[C@H](O)CC2)nc2cc(OCC3CC3)cc(F)c12 |  |  |  | 1 | 0.87 | 0.94 |  | 0.65 |  | 0.67 |  |  | 0.82 | 0.45 | 0.73 | 0.66 | 0.98 | 0.64 | 0.9 | 0.81 | Growth Rate ([1]; 0 h, replicate number 1): 0.63; Growth Rate ([2]; 0 h, replicate number 2): 0.47; Growth Rate ([3]; 0 h, replicate number 1): -0.28; Growth Rate ([3]; 18 h, replicate number 1): 0.92
6 | Cn1c(Nc2c(Cl)cccc2Cl)nc2ccc3nc[nH]c(=O)c3c21 | 0.08 | 0.03 |  |  |  |  | 0.64 | 0.1 | 0.65 | 0.35 | 0.42 | 0.33 | 0.19 | 0.97 | 0.74 | 0.83 | 0.98 | 0.85 | 0.87 | 0.95 | Growth Rate ([1]; 0 h, replicate number 2): -1; Growth Rate ([2]; 18 h, replicate number 1): 0.71; Growth Rate ([2]; 24 h, replicate number 1): 0.51; Growth Rate ([3]; 0 h, replicate number 1): -0.24; Growth Rate ([3]; 18 h, replicate number 1): 0.86
7 | CCN1CCN(Cc2ccc(NC(=O)c3ccc(C)c(Oc4ccnc5[nH]ccc45)c3)cc2C(F)(F)F)CC1.Cl.Cl.Cl.O | -0.97 | -0.99 | -0.7 | -0.55 | -0.63 | -0.43 | -0.67 |  | -1 | 0.02 | -0.03 | -0.05 | 0.57 | 0.84 | 0.38 | 0.15 | 0.17 | 0.04 | -0.97 |  | Growth Rate ([1]; 12 h, replicate number 1): -0.89; Growth Rate ([1]; 12 h, replicate number 2): -0.8; Growth Rate ([3]; 0 h, replicate number 1): -0.12; Growth Rate ([3]; 18 h, replicate number 1): 0.36

— ChEMBL document CHEMBL5303304, “EUbOPEN Chemogenomics Library - IncuCyte” (2023)
